# According to US20060025566A1, “Macrocyclic modulators of the ghrelin receptor” (Tranzyme Pharma Inc., priority 2003, published 2006):
# Molecular target: T1, human growth hormone secretagogue receptor (hGHS-R1a) (Homo sapiens, UniProt Q92847)
# T1 construct: purchased PerkinElmer BioSignal #RBHGHSM, lot#1887; host or cells: HEK-293, stably transfected (membranes)
# Assay: Competitive radioligand binding assay (ghrelin receptor), [125I]-ghrelin displacement on GHS-R/HEK 293 membranes
# Details: Table 3C (compounds 18, 334-397), human ghrelin receptor; read-out: Ki
# Method: The competitive binding assay at the human growth hormone secretagogue receptor (hGHS-R1a) was carried out analogously to assays described in the literature.
# Multiscreen Harvest plates-GF/C (Millipore, #MAHFC 1H60) • 4. […] Bottom seal (Millipore, #MATAH0P00) • 7. […] Binding Buffer: 25 mM Hepes (pH 7.4), 1 mM CaCl2, 5 mM MgCl2, 2.5 mM EDTA, 0.4% BSA Assay Volumes
# Competition experiments were performed in a 300 μl filtration assay format. • 1. 220 μL of membranes diluted in binding buffer • 2. 40 μL of compound diluted in binding buffer • 3. […] Compound Handling
# Compounds were provided frozen on dry ice at a stock concentration of 10 mM diluted in 100% DMSO and stored at −80° C. until the day of testing. On the test day, compounds were allowed to thaw at rt O/N and then diluted in assay buffer according to the desired test concentrations.
# Plates were sealed with TopSeal-A, vortexed gently and incubated at rt for 30 min. The reaction was arrested by filtering samples through Multiscreen Harvest plates (pre-soaked in 0.5% polyethyleneimine) using a Tomtec Harvester, washed 9 times with 500 μL of cold 50 mM Tris-HCl (pH 7.4, 4° C.), and then plates were air-dried in a fumehood for 30 min. A bottom seal was applied to the plates prior to the addition of 25 μL of MicroScint-0 to each well. […] Results were expressed as counts per minute (cpm).
# Data were analyzed by GraphPad Prism (GraphPad Software, San Diego, Calif.) using a variable slope non-linear regression analysis.
# • 1. […] Key Aspects of Method • 1. […] Results
# T1 sequence (Q92847 whole entry): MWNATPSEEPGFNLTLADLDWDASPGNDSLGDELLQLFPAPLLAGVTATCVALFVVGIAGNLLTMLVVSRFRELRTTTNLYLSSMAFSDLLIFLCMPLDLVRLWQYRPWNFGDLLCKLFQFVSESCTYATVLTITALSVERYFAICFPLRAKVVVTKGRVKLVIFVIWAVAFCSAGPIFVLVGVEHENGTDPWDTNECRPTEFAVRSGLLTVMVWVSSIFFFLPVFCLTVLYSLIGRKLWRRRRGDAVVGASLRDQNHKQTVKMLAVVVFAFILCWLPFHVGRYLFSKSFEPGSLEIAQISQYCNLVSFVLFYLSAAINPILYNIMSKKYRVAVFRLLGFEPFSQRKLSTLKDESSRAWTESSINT
row,Ki,SMILES
1,10 to 100 nM,CC1(C)NCCOc2ccccc2C=CCNC(=O)[C@H](Cc2cccc(Cl)c2)NC(=O)C2(CCCC2)NC1=O (stereo in doubt) [compound 349]

# Same assay, conditions: Table 3E, human ghrelin receptor; read-out: Ki
row,SMILES,Ki
1,CCC[C@@H]1NCCOc2ccccc2CCCNC(=O)[C@H](Cc2ccccc2)NC(=O)[C@@H]2CCCN2C1=O,1000 to 10000 nM
2,C[C@@H]1C(=O)N[C@H](Cc2ccccc2)C(=O)NCCCc2ccccc2OCCN2CCC[C@H]2C(=O)N1C,100 to 1000 nM

# More lines, now with the values ahead:
row,Ki,SMILES
1,1000 to 10000 nM,CCC(C)C1NCCOc2ccccc2CCCNC(=O)C(Cc2ccccc2)N2CCC(C2=O)N(C)C1=O (stereo not drawn) [230 diastereomer]
2,100 to 1000 nM,CCC(C)[C@@H]1NCCOc2ccccc2CCCNC(=O)[C@@H](Cc2ccccc2)N2CC[C@@H](C2=O)N(C)C1=O (some centres unmarked)
3,> 10000 nM,CCC(C)[C@@H]1NCCOc2ccccc2CCCNC(=O)[C@@H](Cc2ccccc2)N2CC[C@H](NC1=O)C2=O (some centres unmarked)
4,> 10000 nM,CCC(C)[C@@H]1NCCOc2ccccc2CCCNC(=O)[C@@H](Cc2ccccc2)NC(=O)[C@H]2C[C@H](O)CN2C1=O (some centres unmarked)

# Same assay, conditions: [125I]-ghrelin competition, GHS-R/HEK 293 membranes; Table 3A; read-out: Binding Activity at the Human Ghrelin Receptor
row,SMILES,Ki
1,CC[C@H](C)[C@@H]1NCCOc2ccccc2CCCNC(=O)[C@@H]([C@@H](C)CC)NC(=O)[C@@H](C)N(C)C1=O [compound 209],100 to 1000 nM
2,CC[C@H](C)[C@@H]1NCCOc2ccccc2CCCNC(=O)[C@@H](Cc2ccncc2)NC(=O)[C@@H](C)N(C)C1=O [compound 171],10 to 100 nM
3,CC[C@H](C)[C@@H]1NCCOc2ccccc2CCCNC(=O)[C@@H](C(C)C)NC(=O)[C@@H](C)N(C)C1=O [compound 174],100 to 1000 nM
4,CCCC1NC(=O)C(C)N(C)C(=O)C(C(C)CC)NCCOc2ccccc2CCCNC1=O (centres unmarked) [compound 173],100 to 1000 nM

# The next lines start with the values.
row,Ki,SMILES
1,100 to 1000 nM,CC(C)C[C@@H]1NCCOc2ccccc2C=CCNC(=O)[C@H](Cc2cccs2)NC(=O)C2(CCCC2)NC1=O (stereo in doubt) [compound 164]
2,> 1000 nM,CC(C)CC1NCCOc2ccccc2C=CCNC(=O)C(Cc2ccccn2)NC(=O)C2(CCCC2)NC1=O (stereo in doubt) [160a]
3,100 to 1000 nM,CCC(C)C1NCCOc2ccccc2CCCNC(=O)C(Cc2ccccc2)NC(=O)C(CC)N(C)C1=O (centres unmarked) [compound 212]
4,10 to 100 nM,CC[C@H](C)[C@@H]1NCCOc2ccccc2CCCNC(=O)[C@@H](CCc2ccccc2)NC(=O)[C@@H](C)N(C)C1=O [compound 169]
5,> 10000 nM,CCC(C)C1NC(=O)C2(CCCC2)NC(=O)C(CC(C)C)NCCOc2ccccc2C=CCNC1=O (centres unmarked) [compound 166]
6,> 1000 nM,CC(C)C1NCCOc2ccccc2C=CCNC(=O)C(Cc2ccccc2)NC(=O)C2(CCNCC2)NC1=O (stereo in doubt) [compound 211]

# Same assay, conditions: binding activity at the human ghrelin receptor, [125I]-ghrelin competition, GHS-R/HEK 293 membranes; read-out: Ki
row,SMILES,Ki
1,CN1CC(=O)N[C@H](Cc2ccccc2)C(=O)NCCCc2ccccc2OCCN[C@@H](CO)C1=O [compound 76],> 10000 nM
2,CC(C)C[C@@H]1NCCOc2ccccc2CCCNC(=O)[C@@H](Cc2ccccc2)NC(=O)[C@@H](C)N(C)C1=O [compound 118],10 to 100 nM
3,CCC[C@@H]1NCCOc2ccccc2CCCNC(=O)[C@@H](C)NC(=O)CN(C)C1=O [compound 49],> 10000 nM
4,CCC(C)C1NCCOc2ccccc2CCCNC(=O)C(Cc2ccccn2)NC(=O)C(C)N(C)C1=O (centres unmarked) [compound 32],10 to 100 nM
5,CCCC[C@H]1NC(=O)CN(C)C(=O)[C@H](CCC)NCCOc2ccccc2CCCNC1=O [compound 52],100 to 1000 nM
6,CC(C)C[C@@H]1NCCOc2ccccc2CCCNC(=O)[C@H](Cc2ccc(O)cc2)NC(=O)C2(CCCC2)NC1=O [compound 88],1000 to 10000 nM
7,CN1CC(=O)NC(Cc2ccccc2)C(=O)NCCCc2ccccc2OCCNCC1=O (centres unmarked) [compound 80],> 10000 nM
8,CCCC1NCc2csc(n2)CNC(=O)C(Cc2ccccc2)NC(=O)CN(C)C1=O (centres unmarked) [compound 86],> 10000 nM
9,CCC[C@@H]1NCCOc2ccccc2CCCNC(=O)[C@@H](Cc2ccccc2)NC(=O)[C@H](CCCCN)NC1=O [compound 68],1000 to 10000 nM
10,CC(C)C[C@@H]1NCCOc2ccccc2CCCNC(=O)[C@H](Cc2ccccc2)NC(=O)[C@@H](C)NC1=O [compound 94],1000 to 10000 nM
11,CCC[C@@H]1NCCOc2ccccc2CCCNC(=O)[C@@H](Cc2ccccc2)NC(=O)[C@@H](CC(C)C)NC1=O [compound 63],> 10000 nM
12,CC(C)CC1NCCOc2ccccc2CCCNC(=O)C(CCCCN)NC(=O)C2(CCCC2)NC1=O (centres unmarked) [compound 91],> 10000 nM

# Second part, the compound after the results:
row,Ki,SMILES
1,> 10000 nM,CC(C)C[C@@H]1NCCOc2ccccc2C=CCNC(=O)[C@H](C(C)C)NC(=O)C2(CCCC2)NC1=O (stereo in doubt) [compound 46]
2,10 to 100 nM,"CCC1NCCOc2ccccc2C=CCNC(=O)C(Cc2ccccc2)NC(=O)C2(CCCC2)NC1=O (single isomer, unassigned) [136a]"
3,100 to 1000 nM,CC[C@H](C)[C@@H]1NCCOc2ccccc2C=CCNC(=O)[C@H](Cc2ccccc2)NC(=O)[C@@H](C)NC1=O (stereo in doubt) [compound 14]
4,100 to 1000 nM,CC(C)[C@@H]1NCCOc2ccccc2C=CCNC(=O)[C@H](Cc2ccccc2)NC(=O)C2(CCCCC2)NC1=O (stereo in doubt) [compound 139]
5,100 to 1000 nM,COc1ccc(CC2NCCOc3ccccc3C=CCNC(=O)C(Cc3ccccc3)NC(=O)C3(CCCC3)NC2=O)cc1 (centres unmarked) [compound 127]
6,100 to 1000 nM,O=C1NC2(CCCC2)C(=O)N[C@@H](Cc2ccccc2)C(=O)NCCCc2ccccc2OCCN[C@H]1CO [compound 105]
7,> 10000 nM,O=C1NC2(CCCC2)C(=O)N[C@@H](Cc2ccccc2)C(=O)NCC=Cc2ccccc2OCCN[C@H]1Cc1ccc(-c2ccccc2)cc1 (stereo in doubt) [compound 128]
8,100 to 1000 nM,CCC(C)C1NCCOc2ccccc2CCCNC(=O)C(Cc2ccccc2)NC(=O)C(C(C)CC)N(C)C1=O (centres unmarked) [150a]
9,100 to 1000 nM,O=C1NC2(CCCC2)C(=O)N[C@@H](Cc2ccccc2)C(=O)NCC=Cc2ccccc2OCCN[C@H]1Cc1ccccc1Cl (stereo in doubt) [compound 122]
10,> 10000 nM,O=C(O)CC[C@@H]1NCCOc2ccccc2CCCNC(=O)[C@H](Cc2ccccc2)NC(=O)C2(CCCC2)NC1=O [compound 104]
11,100 to 1000 nM,"CCC1NCCOc2ccccc2/C=C/CNC(=O)C(Cc2ccccc2)NC(=O)C2(CCCC2)NC1=O (single isomer, unassigned) [136b]"
12,100 to 1000 nM,CC(C)C1NCCOc2ccccc2C=CCNC(=O)C(Cc2ccccc2)NC(=O)C2(CCSCC2)NC1=O (stereo in doubt) [compound 143]
13,100 to 1000 nM,"CCC(C)C1NCCOc2ccccc2CCCNC(=O)C(Cc2ccccc2)NC(=O)C(C(C)C)N(C)C1=O (single isomer, unassigned) [145a]"
14,100 to 1000 nM,O=C1NC2(CCCC2)C(=O)N[C@@H](Cc2ccccc2)C(=O)NCC=Cc2ccccc2OCCN[C@H]1Cc1cccc(Cl)c1 (stereo in doubt) [compound 123]
15,100 to 1000 nM,C[C@@H]1NCCOc2ccccc2CCCNC(=O)[C@H](Cc2ccccc2)NC(=O)C2(CCCC2)NC1=O [compound 100]
16,100 to 1000 nM,O=C1NC2(CCCC2)C(=O)N[C@@H](Cc2ccccc2)C(=O)NCC=Cc2ccccc2OCCN[C@H]1CCc1ccccc1 (stereo in doubt) [compound 126]

# Same assay, conditions: binding activity at the human ghrelin receptor, [125I]-ghrelin displacement; read-out: Ki
row,SMILES,Ki
1,C[C@@H]1C(=O)N[C@H](Cc2cc(F)cc(F)c2)C(=O)NCCCc2ccccc2OCCN[C@@H](C2CC2)C(=O)N1C [compound 317],10 to 100 nM
2,CC[C@H](C)[C@@H]1NCCOc2ccccc2CCCNC(=O)[C@@H](Cc2c[nH]cn2)NC(=O)[C@@H](C)N(C)C1=O [compound 305],100 to 1000 nM
3,C[C@@H]1C(=O)N[C@H](Cc2ccc(F)cc2)C(=O)NCCCc2ccccc2OCCN[C@@H](C2CC2)C(=O)N1C [compound 309],0.1 to 10 nM
4,C[C@@H]1C(=O)N[C@H](Cc2ccc(F)cc2)C(=O)NCCCc2ccccc2OCCN[C@@H](CN)C(=O)N1C [compound 337],100 to 1000 nM
5,CSCC[C@@H]1NCCOc2ccccc2CCCNC(=O)[C@@H](Cc2ccc(F)cc2)NC(=O)[C@@H](C)N(C)C1=O [compound 340],10 to 100 nM
6,C[C@@H]1C(=O)N[C@H](Cc2ccc(Br)cc2)C(=O)NCCCc2ccccc2OCCN[C@@H](C2CC2)C(=O)N1C [compound 319],0.1 to 10 nM

# Next, values leading:
row,Ki,SMILES
1,0.1 to 10 nM,CC1C(=O)NC(Cc2ccc(F)cc2)C(=O)NCC=Cc2ccccc2OCCNC(C2CC2)C(=O)N1C (centres unmarked) [compound 401]
2,10 to 100 nM,CC[C@H](C)[C@@H]1NCCOc2ccccc2CCCNC(=O)C(Cc2cccc(Cl)c2)NC(=O)C2(CCCC2)NC1=O (stereo in doubt) [compound 369]
3,100 to 1000 nM,CCC(C)C1NCCOc2ccccc2C=CCNC(=O)C(COCc2ccccc2)NC(=O)C2(CCCC2)NC1=O (centres unmarked) [compound 347]

# Same assay, conditions: second table titled 3C (compounds 435-449), human ghrelin receptor; read-out: Ki
row,Ki,SMILES
1,1000 to 10000 nM,CCC(C)C1NCCOc2ncccc2CCCNC(=O)C(Cc2cccc(Cl)c2)NC(=O)C2(CCCC2)NC1=O (centres unmarked) [compound 449]
2,0.1 to 10 nM,O=C1NC/C=C/c2ccccc2OCCNC2(CCCC2)C(=O)NC2(CCCC2)C(=O)N[C@H]1Cc1cccc(Cl)c1 [compound 437]
